{
  "source": "ChEMBL document CHEMBL3097993",
  "about": "“Synthesis and initial biological evaluation of new mimics of the LXR-modulator 22(S)-hydroxycholesterol” (2014)",
  "key": {"[1]": {"species": "Homo sapiens", "assay": "Induction of lipogenesis in human myotubes at 1 uM after 4 days by scintillation counting analysis in presence of [1-14C]acetate", "format": "functional"}, "[2]": {"biological_target": "T1, Liver X receptor (Homo sapiens) (UniProt Q13133+P55055)", "assay": "Antagonist activity at LXR in human myotubes assessed as downregulation of SCD1 expression at 10 uM after 4 days by qPCR analysis"}, "[3]": {"species": "Homo sapiens", "assay": "Inhibition of tularic-induced lipogenesis in human myotubes at 10 uM after 4 days by scintillation counting analysis in presence of [1-14C]acetate relative to control", "format": "functional"}, "[4]": {"species": "Homo sapiens", "assay": "(§1) Induction of lipogenesis in human myotubes at 10 uM after 4 days by scintillation counting analysis in presence of [1-14C]acetate relative to control", "format": "functional"}, "[5]": {"assay": "as §1", "format": "functional"}, "[6]": {"biological_target": "T1, Liver X receptor (Homo sapiens)", "assay": "Agonist activity at LXR in human myotubes assessed as upregulation of SCD1 expression at 10 uM after 4 days by qPCR analysis"}},
  "note": "Activity calls are given as the source filed them. The rule behind the calls is not given here.",
  "data": [
    {"smiles": "O=S(=O)(c1ccccc1)N(CC(F)(F)F)c1ccc(C(O)(C(F)(F)F)C(F)(F)F)cc1", "values": [
      {"measurement": "Activity", "setting": "[1]", "result": "Active"}
    ]},
    {"smiles": "CC(C)CC[C@H](O)[C@@H](C)[C@H]1CC[C@H]2[C@@H]3CC=C4C[C@@H](O)CC[C@]4(C)[C@H]3CC[C@]12C", "values": [
      {"measurement": "Activity", "setting": "[2]", "result": "Active"},
      {"measurement": "inhibition", "setting": "[3]", "result": "Active"},
      {"measurement": "Activity", "setting": "[4]", "result": "inactive"}
    ]},
    {"smiles": "CC(C)CC[C@H](O)[C@@H](C)COCc1ccc(S(=O)(=O)N2CCCC2)cc1", "values": [
      {"measurement": "fold change (FC)", "setting": "[5]", "result": 2},
      {"measurement": "Activity", "setting": "[6]", "result": "Active"}
    ]}
  ]
}
